Results taken from patent US20110224210A1, “NOVEL BIS-AMIDES AS ANTI-MALARIAL AGENTS” (priority 2008, published 2011).

Tested on: P. falciparum K1 (strain resistant to chloroquine and pyrimethamine), erythrocytic stages
Experiment: Plasmodium falciparum in vitro assay, [3H] hypoxanthine incorporation
Type: cell-based
Conditions: Plasmodium falciparum, K1, P. falciparum strain K1; [3H] hypoxanthine incorporation; read-out: IC50 (nM) on K1
How it was run: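 Chloroquine/pyrimethamine-resistant K1 erythrocytic cultures (2.5% haematocrit, 0.3% parasitaemia, hypoxanthine-free RPMI with Albumax) exposed to seven doubling dilutions at 37 °C under low O2.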

Row | Compound | IC50 [nM]
1 | CC(=O)Nc1ccc(CN(C)C(=O)[C@H](Cc2ccccc2)N(Cc2ccc(N3CCOCC3)cc2)C(=O)C=Cc2ccc(C(F)(F)F)nc2)cc1 [Example 271] | 100
2 | CC(=O)N1CCN(c2ccc(CN(C(=O)C=Cc3ccc(C(F)(F)F)cc3)[C@@H](Cc3ccccc3)C(=O)N(C)CCOCc3ccncc3)cc2)CC1 [Example 205, (S)-N-[4-(4-Acetyl-piperazin-1-yl)-benzyl]-N-(1-{methyl-[2-(pyridin-4-ylmethoxy)-ethyl]-carbamoyl}-2-phenyl-ethyl)-3-(4-trifluoromethyl-phenyl)-acrylamide] | 16
3 | CN(C)[C@@H]1CCN(C(=O)[C@H](Cc2ccccc2)N(Cc2ccc(-c3ccccn3)cc2)C(=O)C=Cc2ccc(C(F)(F)F)cc2)C1 [Example 53, N-[(S)-1-Benzyl-2-((R)-3-dimethylamino-pyrrolidin-1-yl)-2-oxo-ethyl]-N-(4-pyridin-2-yl-benzyl)-3-(4-trifluoromethyl-phenyl)-acrylamide] | 14
4 | COCCN(C)C(=O)[C@H](Cc1ccccc1)N(Cc1ccc(N2CCN(C(C)=O)CC2)cc1)C(=O)C=Cc1ccn(C)n1 [Example 103, (S)-N-[4-(4-Acetyl-piperazin-1-yl)-benzyl]-N-{1-[(2-methoxy-ethyl)-methyl-carbamoyl]-2-phenyl-ethyl}-3-(1-methyl-1H-pyrazol-3-yl)-acrylamide] | 438
5 | COCCN(C)C(=O)[C@H](Cc1ccccc1)N(Cc1ccc(-c2cccnc2)cc1)C(=O)C=Cc1nc(C)oc1C [Example 133, (S)-3-(2,5-Dimethyl-oxazol-4-yl)-N-{1-[(2-methoxy-ethyl)-methyl-carbamoyl]-2-phenyl-ethyl}-N-(4-pyridin-3-yl-benzyl)-acrylamide] | 82
6 | O=C([C@H](Cc1ccccc1)N(Cc1ccc(N2CCOCC2)nc1)C(=O)C=Cc1ccc(C(F)(F)F)nc1)N1CCC(Cc2ccccc2)CC1 [Example 144, (S)-N-[1-Benzyl-2-(4-benzyl-piperidin-1-yl)-2-oxo-ethyl]-N-(6-morpholin-4-yl-pyridin-3-ylmethyl)-3-(6-trifluoromethyl-pyridin-3-yl)-acrylamide] | 24
7 | CN(CCO)C(=O)[C@H](Cc1ccccc1)N(Cc1ccc(N2CCOCC2)cc1)C(=O)C=Cc1ccc(C(F)(F)F)cc1 [Example 175, (S)-N-{1-[(2-Hydroxy-ethyl)-methyl-carbamoyl]-2-phenyl-ethyl}-N-(4-morpholin-4-yl-benzyl)-3-(4-trifluoromethyl-phenyl)-acrylamide] | 88
8 | CC(=O)N1CCN(c2ccc(CN(C(=O)C=Cc3ccc(C(F)(F)F)cc3)[C@@H](Cc3ccccc3)C(=O)N(C)CCOCc3ccccn3)cc2)CC1 [Example 214, (S)-N-[4-(4-Acetyl-piperazin-1-yl)-benzyl]-N-(1-{methyl-[2-(pyridin-2-ylmethoxy)-ethyl]-carbamoyl}-2-phenyl-ethyl)-3-(4-trifluoromethyl-phenyl)-acrylamide] | 23
9 | COCCN(C)C(=O)[C@H](Cc1ccccc1)N(Cc1ccc(N2CCN(C(C)=O)CC2)cc1)C(=O)C=Cc1cnc(OC)nc1 [Example 118, (S)-N-[4-(4-Acetyl-piperazin-1-yl)-benzyl]-N-{1-[(2-methoxy-ethyl)-methyl-carbamoyl]-2-phenyl-ethyl}-3-(2-methoxy-pyrimidin-5-yl)-acrylamide] | 104
10 | Cc1noc(C)c1C=CC(=O)N(Cc1ccc(-c2cncnc2)cc1)[C@@H](Cc1ccccc1)C(=O)N1CCC(N(C)C)CC1 [Example 38, (S)-N-[1-Benzyl-2-(4-dimethylamino-piperidin-1-yl)-2-oxo-ethyl]-3-(3,5-dimethyl-isoxazol-4-yl)-N-(4-pyrimidin-5-yl-benzyl)-acrylamide] | 417
11 | Cc1ccc(C=CC(=O)N(Cc2ccc(N3CCOCC3)nc2)[C@@H](Cc2ccccc2)C(=O)N2CCOCC2)cc1 [Example 147, (S)-N-(1-Benzyl-2-morpholin-4-yl-2-oxo-ethyl)-N-(6-morpholin-4-yl-pyridin-3-ylmethyl)-3-p-tolyl-acrylamide] | 77
12 | CC(=O)N1CCN(c2ccc(CN(C(=O)C=Cc3ccc(C(F)(F)F)cc3)[C@@H](Cc3ccccc3)C(=O)N(C)CCN(C)Cc3cccc(O)c3)cc2)CC1 [Example 240, (S)-N-[4-(4-Acetyl-piperazin-1-yl)-benzyl]-N-[1-({2-[(3-hydroxy-benzyl)-methyl-amino]-ethyl}-methyl-carbamoyl)-2-phenyl-ethyl]-3-(4-trifluoromethyl-phenyl)-acrylamide] | 28
13 | CC(=O)N1CCN(c2ccc(CN(C(=O)C=Cc3ccc(C(F)(F)F)cc3)[C@@H](Cc3ccccc3)C(=O)N(C)CCOCC(N)=O)cc2)CC1 [Example 213, (S)-N-[4-(4-Acetyl-piperazin-1-yl)-benzyl]-N-{1-[(2-carbamoylmethoxy-ethyl)-methyl-carbamoyl]-2-phenyl-ethyl}-3-(4-trifluoromethyl-phenyl)-acrylamide] | 72
14 | CN(CCN(C)C(=O)[C@H](Cc1ccccc1)N(Cc1ccc(N2CCOCC2)cc1)C(=O)C=Cc1ccc(C(F)(F)F)cc1)Cc1ccc2c(c1)OCO2 [Example 266, (S)-N-(1-{[2-(Benzo[1,3]dioxol-5-ylmethyl-methyl-amino)-ethyl]-methyl-carbamoyl}-2-phenyl-ethyl)-N-(4-morpholin-4-yl-benzyl)-3-(4-trifluoromethyl-phenyl)-acrylamide] | 58
15 | O=C([C@H](Cc1ccccc1)N(Cc1ccc(-c2cccnc2)cc1)C(=O)C=Cc1ccc(C(F)(F)F)nc1)N1CCC(Cc2ccccc2)CC1 [Example 47, (S)-N-[1-Benzyl-2-(4-benzyl-piperidin-1-yl)-2-oxo-ethyl]-N-(4-pyridin-3-yl-benzyl)-3-(6-trifluoromethyl-pyridin-3-yl)-acrylamide] | 1
16 | COCCN(C)C(=O)[C@H](Cc1ccccc1)N(Cc1ccc(-c2ccccn2)cc1)C(=O)C=Cc1ccc(C)cn1 [Example 86, (S)-N-{1-[(2-Methoxy-ethyl)-methyl-carbamoyl]-2-phenyl-ethyl}-3-(5-methyl-pyridin-2-yl)-N-(4-pyridin-2-yl-benzyl)-acrylamide] | 27
17 | CN(C)C1CCN(C(=O)C(Cc2cnn(C)c2)N(Cc2ccc(-c3ccncc3)cc2)C(=O)C=Cc2ccc(C(F)(F)F)cc2)CC1 (racemic) [Example 139] | 155
18 | COCCN(C)C(=O)[C@H](Cc1ccccc1)N(Cc1ccc(-c2cncnc2)cc1)C(=O)C=Cc1ccc(Cl)nc1 [Example 128, (S)-3-(6-Chloro-pyridin-3-yl)-N-{1-[(2-methoxy-ethyl)-methyl-carbamoyl]-2-phenyl-ethyl}-N-(4-pyrimidin-5-yl-benzyl)-acrylamide] | 94
19 | CC(=O)N1CCN(c2ccc(CN(C(=O)C=Cc3ccc(C(F)(F)F)cc3)[C@@H](Cc3ccccc3)C(=O)N(C)CCOCc3ccccc3)cc2)CC1 [Example 181, (S)-N-[4-(4-Acetyl-piperazin-1-yl)-benzyl]-N-{1-[(2-benzyloxy-ethyl)-methyl-carbamoyl]-2-phenyl-ethyl}-3-(4-trifluoromethyl-phenyl)-acrylamide] | 10
20 | COCCN(C)C(=O)[C@H](Cc1ccccc1)N(Cc1ccc(N2CCOCC2)cc1)C(=O)C=Cc1ccc(C(F)(F)F)cn1 [Example 67, (S)-N-{1-[(2-Methoxy-ethyl)-methyl-carbamoyl]-2-phenyl-ethyl}-N-(4-morpholin-4-yl-benzyl)-3-(5-trifluoromethyl-pyridin-2-yl)-acrylamide] | < 8
21 | COCCN(C)C(=O)[C@H](Cc1ccccc1)N(Cc1ccc(N2CCN(C(C)=O)CC2)cc1)C(=O)C=Cc1ccc(Cl)nc1 [Example 113, (S)-N-[4-(4-Acetyl-piperazin-1-yl)-benzyl]-3-(6-chloro-pyridin-3-yl)-N-{1-[(2-methoxy-ethyl)-methyl-carbamoyl]-2-phenyl-ethyl}-acrylamide] | 84
22 | COCCN(C)C(=O)C(Cc1ccn(C)n1)N(Cc1ccc(-c2ccncc2)cc1)C(=O)C=Cc1ccc(C(F)(F)F)cc1 (racemic) [Example 167] | 41
23 | CN(Cc1ccc(NC(=O)c2ccccc2)cc1)C(=O)[C@H](Cc1ccccc1)N(Cc1ccc(N2CCOCC2)cc1)C(=O)C=Cc1ccc(C(F)(F)F)nc1 [Example 275, (S)-N-(4-{[Methyl-(2-{(4-morpholin-4-yl-benzyl)-[3-(6-trifluoromethyl-pyridin-3-yl)-acryloyl]-amino}-3-phenyl-propionyl)-amino]-methyl}-phenyl)-benzamide] | 59
24 | COCCN(C)C(=O)[C@H](Cc1ccccc1)N(Cc1ccc(N2CCN(C(C)=O)CC2)cc1)C(=O)C=Cc1ccc(C(F)(F)F)cn1 [Example 116, (S)-N-[4-(4-Acetyl-piperazin-1-yl)-benzyl]-N-{1-[(2-methoxy-ethyl)-methyl-carbamoyl]-2-phenyl-ethyl}-3-(5-trifluoromethyl-pyridin-2-yl)-acrylamide] | < 8
25 | Cc1ccc(COCCN(C)C(=O)[C@H](Cc2ccccc2)N(Cc2ccc(N3CCOCC3)cc2)C(=O)C=Cc2ccc(C(F)(F)F)cc2)c(C)c1 [Example 195, (S)-N-(1-{[2-(2,4-Dimethyl-benzyloxy)-ethyl]-methyl-carbamoyl}-2-phenyl-ethyl)-N-(4-morpholin-4-yl-benzyl)-3-(4-trifluoromethyl-phenyl)-acrylamide] | 81
26 | COc1ncc(C=CC(=O)N(Cc2ccc(-c3ccncc3)cc2)[C@@H](Cc2ccccc2)C(=O)N2CCC(N(C)C)CC2)cn1 [Example 32, (S)-N-[1-Benzyl-2-(4-dimethylamino-piperidin-1-yl)-2-oxo-ethyl]-3-(2-methoxy-pyrimidin-5-yl)-N-(4-pyridin-4-yl-benzyl)-acrylamide] | 298
27 | COCCN(C)C(=O)[C@H](Cc1ccccc1)N(Cc1ccc(-c2cncnc2)cc1)C(=O)C=Cc1ccc(C(F)(F)F)cn1 [Example 130, (S)-N-{1-[(2-Methoxy-ethyl)-methyl-carbamoyl]-2-phenyl-ethyl}-N-(4-pyrimidin-5-yl-benzyl)-3-(5-trifluoromethyl-pyridin-2-yl)-acrylamide] | < 8
